{"source": "patent US11202818B2", "about": "“Methods and compositions for modulating erythropoiesis” (President and Fellows of Harvard College, priority 2016, dated 2021)", "test_system": "Kit+CD55+Lin-CD71lo BM cells", "experiment": "ETD activation in cultured pre-ETD BM cells with S phase arrest", "format": "cell-based, mouse", "method": "To test whether the synchronization of ETD activation with S phase reflects mechanistic dependence, BM cells were isolated prior to the onset of ETD (Kit+CD55+Lin−CD71lo, FIG. 5, Panels f-h). The cells were cultured in the presence of Epo, which allowed them to activate the ETD, reflected first by the upregulation of CD71, followed by the upregulation of the erythroid cell surface marker Ter119, and induction of the beta-globin gene (Hbb-b1). […] The ensuing ETD activation proceeded with a 10-hour delay in the induction of CD71 and Hbb-b1 (FIG. 5, Panels g and h).", "key": {"[1]": {"conditions": "added for the first 10 hours of culture with Epo"}}, "data": [{"smiles": "C[C@@]1(CO)[C@H](O)CC[C@@]2(C)[C@H]1CC[C@H]1C[C@@H]3C[C@@]12CC[C@]3(O)CO", "note": "[aphidicolin]", "values": [{"measurement": "effect on S phase", "setting": "[1]", "result": "arrested S phase"}, {"measurement": "effect on upregulation of CD71", "setting": "[1]", "result": "paused upregulation of CD71"}, {"measurement": "delay in the induction of CD71 and Hbb-b1", "setting": "after removal, added for the first 10 hours", "result": 10, "unit": "h"}]}]}
